Data from US10358458B2, “4′-vinyl substituted nucleoside derivatives as inhibitors of respiratory syncytial virus RNA replication” (Riboscience LLC, priority 2014, dated 2019).

The compounds below were run against T1, RSV polymerase (Human respiratory syncytial virus A, UniProt P28887) (assay: RSV polymerase assay (inhibition of RNA synthesis by RSV polymerase)). Conditions: nucleoside triphosphate analogs; RSV polymerase from RSV infected A549 cells; 33P-CTP incorporation into nascent RSV RNA.
T1 construct: RSV polymerase was obtained from RSV infected A549 cells; endogenous in cells; host or cells: RSV infected A549 cells (virus-encoded polymerase, detergent preparation)
T1 sequence (P28887 whole entry): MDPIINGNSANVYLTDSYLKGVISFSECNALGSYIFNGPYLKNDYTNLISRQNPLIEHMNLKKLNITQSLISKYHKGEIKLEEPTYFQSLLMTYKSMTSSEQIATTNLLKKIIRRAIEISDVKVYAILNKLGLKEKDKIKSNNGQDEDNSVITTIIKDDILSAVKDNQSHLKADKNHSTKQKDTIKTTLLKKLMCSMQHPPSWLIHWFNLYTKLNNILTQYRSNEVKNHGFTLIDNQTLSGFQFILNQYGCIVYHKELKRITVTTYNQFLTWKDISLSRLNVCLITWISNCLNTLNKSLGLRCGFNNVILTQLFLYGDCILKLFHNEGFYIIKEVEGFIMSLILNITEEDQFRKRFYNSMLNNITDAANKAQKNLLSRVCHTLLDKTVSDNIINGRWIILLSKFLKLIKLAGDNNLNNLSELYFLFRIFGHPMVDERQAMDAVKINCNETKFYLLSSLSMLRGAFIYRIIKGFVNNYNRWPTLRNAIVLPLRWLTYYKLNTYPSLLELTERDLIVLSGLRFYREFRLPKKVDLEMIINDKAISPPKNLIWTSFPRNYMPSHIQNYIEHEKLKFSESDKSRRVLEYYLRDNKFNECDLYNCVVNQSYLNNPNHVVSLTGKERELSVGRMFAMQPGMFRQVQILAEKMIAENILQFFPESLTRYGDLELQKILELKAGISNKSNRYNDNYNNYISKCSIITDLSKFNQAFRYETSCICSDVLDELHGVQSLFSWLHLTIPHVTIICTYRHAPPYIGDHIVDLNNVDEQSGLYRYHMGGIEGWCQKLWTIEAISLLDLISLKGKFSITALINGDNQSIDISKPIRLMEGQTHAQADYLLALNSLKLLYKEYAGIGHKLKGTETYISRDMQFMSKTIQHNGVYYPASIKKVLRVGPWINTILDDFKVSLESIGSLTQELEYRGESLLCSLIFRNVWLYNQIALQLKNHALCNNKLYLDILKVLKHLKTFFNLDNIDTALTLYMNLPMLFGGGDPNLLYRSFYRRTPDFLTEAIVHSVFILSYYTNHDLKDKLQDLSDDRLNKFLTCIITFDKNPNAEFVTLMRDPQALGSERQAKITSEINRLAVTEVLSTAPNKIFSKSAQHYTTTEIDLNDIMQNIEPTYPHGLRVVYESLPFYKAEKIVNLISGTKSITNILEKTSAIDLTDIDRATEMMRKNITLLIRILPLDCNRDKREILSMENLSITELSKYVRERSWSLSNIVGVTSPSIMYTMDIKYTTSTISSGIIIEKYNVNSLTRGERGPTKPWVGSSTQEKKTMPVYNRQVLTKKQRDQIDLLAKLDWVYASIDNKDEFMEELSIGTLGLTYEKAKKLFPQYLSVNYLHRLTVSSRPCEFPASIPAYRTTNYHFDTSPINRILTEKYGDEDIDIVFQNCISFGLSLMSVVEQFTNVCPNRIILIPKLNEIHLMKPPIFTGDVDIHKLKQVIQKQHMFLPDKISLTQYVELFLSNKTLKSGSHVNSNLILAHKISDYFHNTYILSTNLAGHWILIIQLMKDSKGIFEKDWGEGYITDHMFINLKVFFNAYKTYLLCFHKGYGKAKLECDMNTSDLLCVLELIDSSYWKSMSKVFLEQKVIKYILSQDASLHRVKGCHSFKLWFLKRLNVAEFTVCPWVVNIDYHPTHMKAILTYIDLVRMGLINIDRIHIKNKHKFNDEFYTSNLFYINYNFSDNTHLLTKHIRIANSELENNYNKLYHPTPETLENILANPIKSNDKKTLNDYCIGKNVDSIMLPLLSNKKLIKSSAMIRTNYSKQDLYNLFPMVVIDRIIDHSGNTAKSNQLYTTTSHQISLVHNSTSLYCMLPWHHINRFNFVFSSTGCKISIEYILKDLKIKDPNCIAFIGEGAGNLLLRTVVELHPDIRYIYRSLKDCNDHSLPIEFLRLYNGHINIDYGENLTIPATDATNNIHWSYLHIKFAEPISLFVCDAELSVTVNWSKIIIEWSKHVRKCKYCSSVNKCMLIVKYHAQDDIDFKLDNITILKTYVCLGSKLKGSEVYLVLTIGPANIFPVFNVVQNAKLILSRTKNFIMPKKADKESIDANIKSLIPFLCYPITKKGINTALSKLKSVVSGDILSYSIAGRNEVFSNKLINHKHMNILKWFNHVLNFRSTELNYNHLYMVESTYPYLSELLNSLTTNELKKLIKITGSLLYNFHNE
T1 sequence (P03421 whole entry, further chain): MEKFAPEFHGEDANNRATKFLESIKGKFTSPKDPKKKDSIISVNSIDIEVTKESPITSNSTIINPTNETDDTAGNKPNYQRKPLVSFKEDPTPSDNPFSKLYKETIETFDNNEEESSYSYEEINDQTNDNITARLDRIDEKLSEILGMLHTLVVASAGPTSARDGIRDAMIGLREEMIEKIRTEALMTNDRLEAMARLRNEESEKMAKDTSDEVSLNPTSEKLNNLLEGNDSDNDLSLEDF
Format: biochemical
Procedure: The RSV polymerase assay measures the ability of the nucleoside triphosphates derived from compounds of formula I to inhibit the RSV polymerase. RSV polymerase was obtained from RSV infected A549 cells. RSV polymerase activity was measured using RSV polymerase preparation (stored in 10 mM Tris-acetate (pH 8), 10 mM K-acetate, 1.5 mM MgCl2, 0.5% deoxycholate and 1% Tween-40) in the a buffer containing 50 mM Tris-HCL, pH8, 100 mM KCl, 5 mM MgCl2, 1 mM DTT and 0.2 mg/ml BSA in the presence of 50 μM ATP, GTP and UTP, 1 μM CTP and 3.5 μCi ^33P-labeled CTP (10 mCi/mL). The amount of nucleotides incorporated into nascent RSV RNA was determined TCA precipitation and scintillation counting.
The polymerase and replication activities of RSV were measured in the presence and absence of different concentrations of compounds to determine the degree of inhibition by the compounds.
The compound concentration at which the enzyme-catalyzed rate is reduced by 50% (IC50) was calculated by fitting the data to equation (1),
[formula] where “Y” corresponds to the relative enzyme activity (in %), “% Min” is the residual relative activity at saturating compound concentration, “% Max” is the relative maximum enzymatic activity, X corresponds to the compound concentration, and “S” is the Hill coefficient (or slope).
For `C=C[C@]1(COP(=O)(O)OP(=O)(O)OP(=O)(O)O)O[C@@H](n2ccc(=O)[nH]c2=O)[C@H](O)[C@@H]1O` [II-1], the IC50 was under 1000 nM. Compound `C=C[C@]1(COP(=O)(O)OP(=O)(O)OP(=O)(O)O)O[C@@H](n2ccc(N)nc2=O)[C@H](O)[C@@H]1O` [II-2] has an IC50 of under 1000 nM. Work on `C=C[C@]1(COP(=O)(O)OP(=O)(O)OP(=O)(O)O)O[C@@H](n2cnc3c(N)ncnc32)[C@H](O)[C@@H]1O` [II-3] yielded an IC50 of under 1000 nM.
